Results published in patent US4362725A, “Cephalosporins” (Dr. Karl Thomae Gesellschaft mit beschrankter Haftung, priority 1980, dated 1982).
In brackets after ≈: the same amount, converted by molar mass.

What was measured:
[1] = system: Klebsiella pneumoniae ATCC 10 031; experiment: In vitro serial dilution test in the microtiter system (MIC), Klebsiella ATCC 10031; type: cell-based; conditions: 18 to 20 h at 37° C., read-out: MIC Klebs. pneum. ATCC 10031
Description: (§1) The tests were performed using the serial dilution test in the microtiter system. The effect of the test compound on bacteristasis was examined in a liquid medium at the following concentrations: >64, 64 32, 16, 8, 4, 2, 1, 0.5, 0.25, 0.125, 0.06, 0.03 and 0.015 μgm/ml. The nutrient medium consisted of 10 gm of peptone, 8 gm of meat extract oxoid, 3 gm of sodium chloride, and 2 gm of sec. sodium phosphate diluted with distilled water to […] (pH 7.2-7.4). Only in the test against streptococci 1% of glucose was added. The age of the primary cultures was approximately 20 hours. The standardization of the bacteria suspension was effected using a photometer according to the method of Eppendorf (test tube .phi.-mm, filter 546 nm), using for comparison a barium sulfate suspension formed by the addition of 3.0 ml of 1% barium chloride solution to 97 ml of 1% sulfuric acid. After standardization, the test microorganisms were further diluted to a concentration of 1:1500, using a sodium chloride solution.
(§2) 16 mgm of the particular test compound were put into a 10 ml measuring flask, and the flask was subsequently filled to the mark with solvent. The further dilution series was standardized with distilled water or the appropriate solvent.
(§3) The cavities of the microtiter plates were filled with 0.2 ml of nutrient medium. 0.01 ml of the appropriate test compound solution was then added, followed by inoculation with 0.01 ml (1 drop) of the standardized bacteria suspension. The bacteria were incubated at 37° C. for 18 to 20 hours. Control tests using only the solvent were carried out simultaneously.
(§4) The readings were made macroscopically to determine the minimum inhibitory concentration (the lowest still bacteriostatically effective concentration).
(§5) The following test organisms were used:
(§6) Staphylococcus aureus SG 511, Escherichia coli ATCC11 775, Pseudomonas aeruginosa hamburgensis and Pseudomonas aeruginosa BC 19, Serratia marcescens ATCC 13 880, Klebsiella pneumoniae ATCC 10 031 and BC 6, Proteus mirabilis BC 17, Proteus rettgeri BC 7, Enterobacter Cloaceae ATCC 13047 and E. coli R+TEM (β-lactamase carrier).

[2] = system: Klebsiella pneumoniae BC 6; experiment: In vitro serial dilution test in the microtiter system (MIC), Klebsiella BC 6; type: cell-based; conditions: BC6, 18 to 20 h at 37° C., read-out: MIC Klebs. pneum. BC 6
Description: as §1, §2, §3, §4, §5, §6

[3] = system: Staphylococcus aureus SG 511; experiment: In vitro serial dilution test in the microtiter system (MIC), S. aureus; type: cell-based; conditions: SG511, 18 to 20 h at 37° C.
Description: as §1, §2, §3, §4, §5, §6

[4] = system: Pseudomonas aeruginosa BC 19; experiment: In vitro serial dilution test in the microtiter system (MIC), Pseudomonas BC 19; type: cell-based; conditions: BC19, 18 to 20 h at 37° C., read-out: MIC Pseud. aerug. BC 19
Description: as §1, §2, §3, §4, §5, §6

[5] = system: Enterobacter Cloaceae ATCC 13047; experiment: In vitro serial dilution test in the microtiter system (MIC), Enterobacter; type: cell-based; conditions: ATCC13047, 18 to 20 h at 37° C., read-out: MIC Eb. cloaceae
Description: as §1, §2, §3, §4, §5, §6

Proteus rettgeri BC 7 = experiment: In vitro serial dilution test in the microtiter system (MIC), Proteus rettgeri; type: cell-based; conditions: Providencia rettgeri, BC7; 18 to 20 h at 37° C.; read-out: MIC Prot. rettg. BC 7
Description: as §1, §2, §3, §4, §5, §6

[6] = system: Serratia marcescens ATCC 13 880; experiment: In vitro serial dilution test in the microtiter system (MIC), Serratia; type: cell-based; conditions: 18 to 20 h at 37° C., read-out: MIC Ser. marcesc. ATCC 13880
Description: as §1, §2, §3, §4, §5, §6

[7] = system: Pseudomonas aeruginosa hamburgensis; experiment: In vitro serial dilution test in the microtiter system (MIC), Pseudomonas Hbg.; type: cell-based; conditions: 18 to 20 h at 37° C., read-out: MIC Pseud. aerug. Hbg.
Description: as §1, §2, §3, §4, §5, §6

[8] = system: Pseudomonas aeruginosa BC 19; experiment: In vivo activity in mice, experimental Pseudomonas infection; set-up: species or system mice (female, NMRI strain); conditions: BC19, sc, 168 h, per dose, s.c., 3 times (1, 3 and 5 hours after i.p. Pseudomonas infection), 7 days observation, read-out: ED50 (dose at which 50% of the animals survive)
Description: (§7) Several of the compounds of this invention were tested in vivo against experimental infections in mice. E. coli ATCC 11 775 and Pseudomonas aeruginosa BC 19 were used as the pathogenic bacteria. An interaperitoneal infection was induced with 0.2 ml of a bacterial suspension (containing 5% of mucin). This corresponds to approximately 1.4×10^6 E. coli germs or to 1.3×10^6 pseudomonas germs per mouse. Female mice of the NMRI strain were divided up into groups of 10 animals of which 2 groups remained untreated while the remaining groups were subcutaneously administered various doses of the particular cephalosporins according to the invention for the purpose of determining the ED50 (dose at which 50% of the animals survive). In the case of the E. coli infection, the treatment was applied once (1 hour after infection) while the pseudomonas infection was treated 3 times (1, 3 and 5 hours after infection).
(§8) In both cases, the observation period was 7 days. The results of these tests, carried out with typical representatives of the cephalosporins according to the invention, are shown in Table 3 below.

[9] = system: Escherichia coli ATCC11 775; experiment: In vitro serial dilution test in the microtiter system (MIC), E. coli; type: cell-based; conditions: 18 to 20 h at 37° C., read-out: MIC E. coli ATCC 11775
Description: as §1, §2, §3, §4, §5, §6

E. coli ATCC 11 775 = experiment: In vivo activity in mice, experimental E. coli infection; set-up: species or system mice (female, NMRI strain); conditions: Escherichia coli, ATCC11, sc, 168 h; s.c., once 1 hour after i.p. E. coli infection; 7 days observation; read-out: ED50 (dose at which 50% of the animals survive)
Description: as §7, §8

Proteus mirabilis BC 17 = experiment: In vitro serial dilution test in the microtiter system (MIC), Proteus mirabilis; type: cell-based; conditions: BC17, 18 to 20 h at 37° C., read-out: MIC Prot. mir. BC 17
Description: as §1, §2, §3, §4, §5, §6

[10] = system: E. coli R+TEM (β-lactamase carrier); experiment: In vitro serial dilution test in the microtiter system (MIC), E. coli R+TEM; type: cell-based; conditions: Escherichia coli, read-out: MIC E. coli R + TEM
Description: as §1, §2, §3, §4, §5, §6

Compound | MIC [1] [µg/mL] | MIC [2] [µg/mL] | MIC [3] [µg/mL] | MIC [4] [µg/mL] | MIC [5] [µg/mL] | MIC (Proteus rettgeri BC 7) [µg/mL] | MIC [6] [µg/mL] | MIC [7] [µg/mL] | ED50 [8] [mg/kg] | MIC [9] [µg/mL] | ED50 (E. coli ATCC 11 775) [mg/kg] | MIC (Proteus mirabilis BC 17) [µg/mL] | MIC [10] [µg/mL]
Cn1c(SCC2=C(C(=O)O)N3C(=O)[C@@H](NC(=O)C(NC(=O)Nc4cnc(Nc5ccc(S(N)(=O)=O)cc5)nc4O)c4ccc(O)cc4)[C@H]3SC2)nnc(O)c1=O (stereo partly drawn) [Compound 16] | 0.12 (≈ 0.145 µM) | 0.25 (≈ 0.302 µM) | 0.12 (≈ 0.145 µM) | 4 (≈ 4.83 µM) | 0.25 (≈ 0.302 µM) | 0.25 (≈ 0.302 µM) | 0.25 (≈ 0.302 µM) | 8 (≈ 9.66 µM) | 10 to 20 | 0.12 (≈ 0.145 µM) | ~0.8 | 0.12 (≈ 0.145 µM) | 4
NS(=O)(=O)c1ccc(Nc2ncc(NC(=O)NC(C(=O)N[C@@H]3C(=O)N4C(C(=O)O)=C(CSc5nnnn5CC(=O)O)CS[C@H]34)c3ccc(O)cc3)c(O)n2)cc1 (stereo partly drawn) [Compound 5] | 0.5 (≈ 0.603 µM) | 0.5 (≈ 0.603 µM) | 4 (≈ 4.83 µM) | 8 (≈ 9.65 µM) | 2 (≈ 2.41 µM) | 0.25 (≈ 0.302 µM) | 0.5 (≈ 0.603 µM) | 8 (≈ 9.65 µM) |  | 0.5 (≈ 0.603 µM) |  | 0.12 (≈ 0.145 µM) | 32
CS(=O)(=O)CCn1nnnc1SCC1=C(C(=O)O)N2C(=O)[C@@H](NC(=O)C(NC(=O)Nc3cnc(Nc4ccc(S(N)(=O)=O)cc4)nc3O)c3ccc(O)cc3)[C@H]2SC1 (stereo partly drawn) [Compound 30] | 0.5 (≈ 0.57 µM) | 0.5 (≈ 0.57 µM) | 2 (≈ 2.28 µM) | 4 (≈ 4.56 µM) | 0.5 (≈ 0.57 µM) | 1 (≈ 1.14 µM) | 0.5 (≈ 0.57 µM) | 8 (≈ 9.12 µM) | 10 to 20 | 0.12 (≈ 0.137 µM) | ~0.6 | 0.06 (≈ 0.0684 µM) | 8
C[S+]([O-])CCn1nnnc1SCC1=C(C(=O)O)N2C(=O)[C@@H](NC(=O)C(NC(=O)Nc3cnc(Nc4ccc(S(N)(=O)=O)cc4)nc3O)c3ccc(O)cc3)[C@H]2SC1 (stereo partly drawn) [Compound 21] | 0.25 (≈ 0.29 µM) | 0.25 (≈ 0.29 µM) | 1 (≈ 1.16 µM) | 8 (≈ 9.29 µM) |  | 0.5 (≈ 0.581 µM) | 0.25 (≈ 0.29 µM) | 8 (≈ 9.29 µM) |  | 0.12 (≈ 0.139 µM) |  | 0.12 (≈ 0.139 µM) | 8
CO/N=C(\C(=O)N[C@@H]1C(=O)N2C(C(=O)O)=C(COC(N)=O)CS[C@H]12)c1ccco1 [Cefuroxim, reference compound] | 2 (≈ 4.71 µM) | 4 (≈ 9.43 µM) | 1 (≈ 2.36 µM) | > 100 | 32 (≈ 75.4 µM) | 2 (≈ 4.71 µM) | 8 (≈ 18.9 µM) | > 100 |  | 8 (≈ 18.9 µM) | > 100 | 0.5 (≈ 1.18 µM) | 4
NS(=O)(=O)c1ccc(Nc2ncc(NC(=O)NC(C(=O)N[C@@H]3C(=O)N4C(C(=O)O)=C(CSc5nnnn5CCO)CS[C@H]34)c3ccc(O)cc3)c(O)n2)cc1 (stereo partly drawn) [Compound 7] | 0.12 (≈ 0.147 µM) | 0.12 (≈ 0.147 µM) | 1 (≈ 1.23 µM) | 4 (≈ 4.91 µM) | 0.25 (≈ 0.307 µM) | 0.25 (≈ 0.307 µM) | 0.12 (≈ 0.147 µM) | 4 (≈ 4.91 µM) | 6.3 | 0.03 (≈ 0.0368 µM) | ~0.3 | 0.06 (≈ 0.0736 µM) | 4
Cc1nnc(SCC2=C(C(=O)O)N3C(=O)[C@@H](NC(=O)Cn4cnnn4)[C@H]3SC2)s1 [Cephazolin, reference compound] | 1 (≈ 2.2 µM) | 2 (≈ 4.4 µM) | 0.06 (≈ 0.132 µM) | > 100 | > 100 | > 100 | > 100 | > 100 |  | 4 (≈ 8.8 µM) |  | 4 (≈ 8.8 µM) | 4
CS(=O)(=O)NCCn1nnnc1SCC1=C(C(=O)O)N2C(=O)[C@@H](NC(=O)C(NC(=O)Nc3cnc(Nc4ccc(S(N)(=O)=O)cc4)nc3O)c3ccc(O)cc3)[C@H]2SC1 (stereo partly drawn) [Compound 36] | 0.12 (≈ 0.135 µM) | 0.12 (≈ 0.135 µM) | 2 (≈ 2.24 µM) | 2 (≈ 2.24 µM) | 0.12 (≈ 0.135 µM) | 0.25 (≈ 0.28 µM) | 0.25 (≈ 0.28 µM) | 4 (≈ 4.48 µM) |  | 0.03 (≈ 0.0336 µM) |  | 0.06 (≈ 0.0673 µM) | 8
CC(=O)NCCn1nnnc1SCC1=C(C(=O)O)N2C(=O)[C@@H](NC(=O)C(NC(=O)Nc3cnc(Nc4ccc(S(N)(=O)=O)cc4)nc3O)c3ccc(O)cc3)[C@H]2SC1 (stereo partly drawn) [Compound 37] | 0.12 (≈ 0.14 µM) | 0.12 (≈ 0.14 µM) | 2 (≈ 2.34 µM) | 4 (≈ 4.67 µM) | 0.12 (≈ 0.14 µM) | 0.25 (≈ 0.292 µM) | 0.12 (≈ 0.14 µM) | 8 (≈ 9.35 µM) |  | 0.12 (≈ 0.14 µM) |  | 0.06 (≈ 0.0701 µM) | 8
